Where a name gives a salt, the structure may show the parent alone.
Assays:
Experiment in all cases: Post-emergence efficacy (glasshouse, spray application)
Assay type in all cases: in vivo
Setaria faberi (SETFA) = settings: 312 h, Application rate 500 g/Ha, evaluated after 13 days, 100=total damage to plant, 0=no damage to plant, read-out: Control of weed species after post-emergence application, SETFA
Method: (§1) Seeds of a variety of test species were sown in standard soil in pots. After cultivation for 14 days (post-emergence) under controlled conditions in a glasshouse (at 24/16° C., day/night; 14 hours light; 65 humidity), the plants were sprayed with an aqueous spray solution derived from the dissolution of the technical active ingredient formula (I) in a small amount of acetone and a special solvent and emulsifier mixture referred to as IF50 (11.12% Emulsogen EL360 TM+44.44% N-methylpyrrolidone+44.44% Dowanol DPM glycol ether), to create a 50 g/l solution which was then diluted to required concentration using a solution of 0.25% or 1% Empicol ESC70 (Sodium lauryl ether sulphate)+1% ammonium sulphate in water as diluent.
(§2) The test plants were then grown in a glasshouse under controlled conditions (at 24/16° C., day/night; 14 hours light; 65% humidity) and watered twice daily. After 13 days the test was evaluated (100=total damage to plant; 0=no damage to plant).
(§3) Ipomoea hederacea (IPOHE), Euphorbia heterophylla (EPHHL), Chenopodium album (CHEAL), Amaranthus palmeri (AMAPA), Lolium perenne (LOLPE), Digitaria sanguinalis (DIGSA), Eleusine indica (ELEIN), Echinochloa crus-galli (ECHCG), Setaria faberi (SETFA)

[1] = test system: Amaranthus palmeri (AMAPA); settings: 312 h, Application rate 500 g/Ha, evaluated after 13 days, 100=total damage to plant, 0=no damage to plant, read-out: Control of weed species after post-emergence application, AMAPA
Method: as §1, §2, §3

[2] = test system: Echinochloa crus-galli (ECHCG); settings: 312 h, Application rate 500 g/Ha, evaluated after 13 days, 100=total damage to plant, 0=no damage to plant, read-out: Control of weed species after post-emergence application, ECHCG
Method: as §1, §2, §3

[3] = test system: Chenopodium album (CHEAL); settings: 312 h, Application rate 500 g/Ha, evaluated after 13 days, 100=total damage to plant, 0=no damage to plant, read-out: Control of weed species after post-emergence application, CHEAL
Method: as §1, §2, §3

[4] = test system: Ipomoea hederacea (IPOHE); settings: 312 h, Application rate 500 g/Ha, evaluated after 13 days, 100=total damage to plant, 0=no damage to plant, read-out: Control of weed species after post-emergence application, IPOHE
Method: as §1, §2, §3

Lolium perenne (LOLPE) = settings: 312 h, Application rate 500 g/Ha, evaluated after 13 days, 100=total damage to plant, 0=no damage to plant, read-out: Control of weed species after post-emergence application, LOLPE
Method: as §1, §2, §3

Eleusine indica (ELEIN) = settings: 312 h, Application rate 500 g/Ha, evaluated after 13 days, 100=total damage to plant, 0=no damage to plant, read-out: Control of weed species after post-emergence application, ELEIN
Method: as §1, §2, §3

[5] = test system: Euphorbia heterophylla (EPHHL); settings: 312 h, Application rate 500 g/Ha, evaluated after 13 days, 100=total damage to plant, 0=no damage to plant, read-out: Control of weed species after post-emergence application, EPHHL
Method: as §1, §2, §3

[6] = test system: Digitaria sanguinalis (DIGSA); settings: 312 h, Application rate 500 g/Ha, evaluated after 13 days, 100=total damage to plant, 0=no damage to plant, read-out: Control of weed species after post-emergence application, DIGSA
Method: as §1, §2, §3

Row | SMILES | pest or weed control at 500 g/ha (Setaria faberi (SETFA)) [%] | pest or weed control at 500 g/ha [1] [%] | pest or weed control at 500 g/ha [2] [%] | pest or weed control at 500 g/ha [3] [%] | pest or weed control at 500 g/ha [4] [%] | pest or weed control at 500 g/ha (Lolium perenne (LOLPE)) [%] | pest or weed control at 500 g/ha (Eleusine indica (ELEIN)) [%] | pest or weed control at 500 g/ha [5] [%] | pest or weed control at 500 g/ha [6] [%]
1 | CC(=O)N(CC[n+]1ccc(-c2ncccn2)cn1)CC(=O)O [Compound A31] | 60 | 100 | 60 | 90 | 50 | 20 | 60 | 90 | 80
2 | CN(CC[n+]1ccc(-c2ncccn2)cn1)S(=O)(=O)CC(=O)O [Compound A30, 2-[methyl-[2-(4-pyrimidin-2-ylpyridazin-1-ium-1-yl)ethyl]-sulfamoyl]acetic acid chloride] | 60 | 100 | 100 | 80 | 20 | 50 | 40 | 90 | 70
3 | CC(C)(CC(=O)O)NC(=O)CC[n+]1ccc(-c2ncccn2)cn1 [Compound A36] | 100 | 100 | 40 | 100 | 20 | 90 | 100 | 90 | 100
4 | O=S(=O)([O-])OCCOCC[n+]1ccc(-c2ncccn2)cn1 [Compound A21, 2-[2-(4-pyrimidin-2-ylpyridazin-1-ium-1-yl)ethoxy]ethyl sulfate] | 70 | 100 | 80 | 70 | 40 | 40 | 80 | 90 | 70
5 | O=C(O)CSCC[n+]1ccc(-c2cccnn2)cn1 [Compound A18] | 60 | 100 | 60 | 90 | 70 | 70 | 100 | 100 | 60
6 | O=C(O)CNS(=O)(=O)CC[n+]1ccc(-c2ncccn2)cn1 [Compound A29, 2-[2-(4-pyrimidin-2-ylpyridazin-1-ium-1-yl)ethylsulfonylamino]-acetic acid 2,2,2-trifluoroacetate] | 60 | 100 | 50 | 70 | 40 | 50 | 70 | 90 | –
7 | O=C(CC[n+]1ccc(-c2ncccn2)cn1)NC1(C(=O)O)CC1 [Compound A38] | 100 | 100 | 50 | 100 | 10 | 90 | 100 | 80 | 90
8 | CCCC(NC(=O)C[n+]1ccc(-c2ncccn2)cn1)C(=O)O (centres unmarked) [Compound A3] | 70 | 100 | 90 | 100 | 70 | 50 | 100 | 100 | 90

— patent US20220104492A1, “PYRIDAZINIUM COMPOUNDS FOR USE IN A METHOD OF CONTROLLING UNWANTED PLANT GROWTH” (SYNGENTA CROP PROTECTION AG, priority 2019, published 2022)
